Like-named read-outs stand apart in the source and are kept apart here.
Legend:
[1] = Pharmacokinetic experiment in rats; type: in vivo; conditions: rat; for bioavailability: gavage 20 mg/kg vs intravenous 10 mg/kg, read-out: F (absolute bioavailability)
Protocol: Six healthy rats weighing 150-200 g were randomly divided into […] (n=3). The rats were given 10 mL/kg ZD043 by gavage and intravenous injection. The dose of gavage was 20 mg/kg, and the dose of intravenous administration was 10 mg/kg. The drug was formulated in DMSO/Tween 80/saline (5:5:90, v/v/v). The rats were fasted for 12 h before testing, and drinked water ad libitum. 2 h after administration, all rats ate together.
Gavage administration: 0, 0.25, 0.5, 1.0, 2.0, 4.0, 6.0, 8.0 and 24 h after administration;
Intravenous administration: 0, 5 min, 0.25, 0.5, 1.0, 2.0, 4.0, 6.0, 8.0 and 24 h after administration;
0.3 mL of blood was collected at the above time points from the rat eye vein venous plexus, placed in heparinized test tube and centrifugated at 11000 rpm for 5 min. Plasma was separated and the sample was frozed in −20° C. refrigerator.

ICR mice = test: Mouse forced swimming experiment; type: in vivo; conditions: later 4 min of 6 min
Protocol: Experimental principle: The principle of Mouse Forced Swimming Test (FST) is to allow the mouse to swim in a limited space from which it can not escape, thus inducing animal to non-movement state which reflects the animal's desperate behavior.
Experimental animals: ICR mice, 20-28 g, both male and female
Sample treatment: The test compounds were ground with 1% CMC (sodium carboxymethyl cellulose) aqueous solution to prepare a homogeneous solution. In vivo dose was 5 mg/kg, 10 mg/kg and 20 mg/kg, the compound was oral administered at 0.1 ml/10 g volume/body weight. Positive control drugs (amitriptyline and fluoxetine) were dissolved with 0.9% saline, in vivo dose was 10 mg/kg, administered by intraperitoneal injection at 0.1 ml/10 g volume/body weight. (Note: the mice were fasted for 8 h and drinked water ad libitum before the compound was given.)
Experimental Methods: mice were grouped randomly. […] On the second day of the test, the mice were orally administered the compound. After 1 hour (0.5 hours after intraperitoneal injection), the mice were then put in water to record the immobility time in the later 4 min of 6 min.

Cc1nc(C#Cc2ccc(F)c(C(=O)Nc3cccnc3)c2)cs1 [ZD043]
AUC(0-t) ([1]; plasma, intravenous, vein 10 mg/kg, read-out: AUC0-t): 66400 ng·h/mL
AUC(0-inf) ([1]; plasma, iv, vein 10 mg/kg): 66400 ng·h/mL
Cmax ([1]; plasma, iv, vein 10 mg/kg): 75400 ng/mL
MRT ([1]; plasma, iv, vein 10 mg/kg): 37.2 min
Tmax ([1]; plasma, iv, vein 10 mg/kg): 4.98 min
AUC(0-t) ([1]; plasma, iv, vein 10 mg/kg, read-out: AUC0-t): 66400 ng·h/mL
bioavailability ([1]; plasma, oral): 31.6%
AUC(0-inf) ([1]; plasma, po, gavage 20 mg/kg): 10500 ng·h/mL
Cmax ([1]; plasma, po, gavage 20 mg/kg): 7120 ng/mL
MRT ([1]; plasma, po, gavage 20 mg/kg): 63.6 min
Tmax ([1]; plasma, po, gavage 20 mg/kg): 15 min
bioavailability ([1]; plasma, po): 31.6%
AUC(0-t) ([1]; plasma, po, gavage 20 mg/kg, read-out: AUC0-t): 10500 ng·h/mL
AUC(0-t) ([1]; gavage 20 mg/kg): 10491.2 ng·h/mL
t1/2 ([1]; gavage 20 mg/kg): 78 min
half-life ([1]; plasma, iv, 10 mg/kg, vein 10 mg/kg): 25.8 min
half-life ([1]; plasma, po, 20 mg/kg, gavage 20 mg/kg): 78.1 min
immobility time (%) Mean ± SEM (ICR mice; 5 mg/kg oral): reduced
immobility time (%) Mean ± SEM (ICR mice; 5 mg/kg oral, listed as D043): 74.97 ± 18.79%
immobility time (%) Mean ± SEM (ICR mice; 10 mg/kg oral): reduced
immobility time (%) Mean ± SEM (ICR mice; 10 mg/kg oral, listed as D043): 66.01 ± 21.08%
immobility time (%) Mean ± SEM (ICR mice; 20 mg/kg oral): reduced
immobility time (%) Mean ± SEM (ICR mice; 20 mg/kg oral, listed as D043): 46.50 ± 13.03%

Source: patent US10618900B2, “5-aromatic alkynyl substituted benzamide compound and preparation method, pharmaceutical composition, and use thereof” (SHANGHAI INSTITUTE OF MATERIA MEDICA, CHINESE ACADEMY OF …, priority 2015, dated 2020)
